Test results as given in patent US8889705B2, “Noscapine analogs and their use in treating cancers” (Emory University, priority 2007, dated 2014).
Entries after “also recorded” stand apart in the source; their conditions may differ.

Legend:
[1] = test system: normal human fibroblast cells; experiment: Cell cycle analysis (propidium iodide, flow cytometry); type: cell-based; conditions: 100 μM
Description: The flow cytometric evaluation of the cell cycle status was performed as described previously (Zhou et al., 2003). Briefly, 2×10^6 cells were centrifuged, washed twice with ice-cold PBS, and fixed in 70% ethanol. Tubes containing the cell pellets were stored at 4° C. for at least 24 hours. Cells were then centrifuged at 1000×g for 10 min and the supernatant was discarded. The pellets were washed twice with 5 ml of PBS and then stained with 0.5 ml of propidium iodide (0.1% in 0.6% Triton-X in PBS) and 0.5 ml of RNase A (2 mg/ml) for 45 minutes in dark. Samples were then analyzed on a FACSCalibur flow cytometer (Beckman Coulter Inc., Fullerton, Calif.).

1A9 cells = experiment: Sulforhodamine B cell proliferation assay; type: cell-based; conditions: Homo sapiens; 1A9, 72 hours, SRB
Description: (§1) Sulforhodamine B assay: The cell proliferation assay was performed in 96-well plates as described previously (Skehan et al., 1990; Zhou et al., 2003). Adherent cells (1A9 and 1A9/PTX22) were seeded in 96-well plates at a density of 5×10^3 cells per well. They were treated with increasing gradient concentrations of 9-nitro-nos the next day while in log-phase growth. After 72 hours of drug treatment, cells were fixed with 50% trichloroacetic acid and stained with 0.4% sulforhodamine B dissolved in 1% acetic acid. Cells were then washed with 1% acetic acid to remove unbound dye. The protein-bound dye was extracted with 10 mM Tris base to determine the optical density at 564-nm wavelength.

1A9/PTX22 cells [2] = experiment: Sulforhodamine B cell proliferation assay; type: cell-based; conditions: Homo sapiens, 1A9/ptx-22; 1A9/PTX22, 72 hours, SRB
Description: as §1

CEM/VLB100 cells = experiment: In vitro cell proliferation MTS assay; type: cell-based; conditions: Homo sapiens, CEM/VLB100, 72 hours
Description: (§2) Suspension cells (CEM, CEMNLB100 and CEM/VM-1-5) were cultured in RPMI-1640 media containing 10% FBS and then seeded into 96-well plates at a density of 5×10^3 cells per well and were treated with increasing gradient concentrations of 9-nitro-nos for 72 hours. Measurement of cell proliferation was performed colorimetrically by 3-(4,5-dimethylthiazol-2-yl)-5-(3-carboxymethoxyphenyl)-2-(4-sulphophenyl)-2H-tetrazolium, inner salt (MTS) assay, using the CellTiter96 AQueous One Solution Reagent (Promega, Madison, Wis.). Cells were exposed to MTS for 3 hours and absorbance was measured using a microplate reader (Molecular Devices, Sunnyvale, Calif.) at an optical density (OD) of 490 nm. The percentage of cell survival as a function of drug concentration for both the assays was then plotted to determine the IC50 value, which stands for the drug concentration needed to prevent cell proliferation by 50%.

CEM/VM-1-5 cells = experiment: In vitro cell proliferation MTS assay; type: cell-based; conditions: Homo sapiens, CEM/VM-1-5, 72 hours
Description: as §2

1A9/PTX22 cells [3] = experiment: TUNEL assay for apoptosis (flow cytometry); type: cell-based, human; conditions: 1A9/PTX22, 50 μM, 72 hours
Description: DNA strand breaks were identified by using the TUNEL assay as described. In brief, 1A9/PTX22 cells were incubated with 50 μM 9-nitro-nos for 72 hours. Cells were pelleted and washed with ice-cold PBS twice. Cells were then fixed in 1% paraformaldehyde, and apoptosis was detected using the APO-BrdU TUNEL Assay Kit from Molecular Probes (Eugene, Oreg.) according to the manufacturer's instructions. This assay was run on a flow cytometer equipped with a 488 nm argon laser as the light source. Propidium iodide (total cellular DNA) and Alexa-Fluor 488 (apoptotic cells) were the two dyes used. PI fluoresces at about 623 nm and Alexa-Fluor 488 at about 520 nm when excited at 488 nm. […] The gating display was the standard dual parameter DNA doublet discrimination display with the DNA area signal on the Y-axis and the DNA width signal on the X-axis. From this display, a gate was generated around the non-clumped cells and the second gated dual parameter display was generated with the DNA (linear red fluorescence) on the X-axis and the Alexa-Fluor 488 (log green fluorescence) on the Y-axis. Apoptotic cells were subsequently counted as those expressing high Alexa-Fluor 488 fluorescence. Confocal micrographs were also obtained for the TUNEL-stained cells using a 63× objective.

[4] = test system: CEM, CEM/VLB100, CEM/VM-1-5, 1A9 and 1A9/PTX22 cells; experiment: Immunofluorescence microscopy (microtubule and nuclear morphology); type: cell-based, human; conditions: 72 hours
Description: Cells adhered to poly-L-lysine coated coverslips were treated with 9-nitro-nos for 72 hours. After treatment, cells were fixed with cold (−20° C.) methanol for 5 min and then washed with phosphate-buffered saline (PBS) for 5 min. Non-specific sites were blocked by incubating with 100 μl of 2% BSA in PBS at 37° C. for 15 min. A mouse monoclonal antibody against α-tubulin (DM1A, Sigma) was diluted 1:500 in 2% BSA/PBS (100 μl) and incubated with the coverslips for 2 hours at 37° C. Cells were then washed with 2% BSA/PBS for 10 min at room temperature before incubating with a 1:200 dilution of a fluorescein-isothiocyanate (FITC)-labeled goat anti-mouse IgG antibody (Jackson ImmunoResearch, Inc., West Grove, Pa.) at 37° C. for 1 hour. Coverslips were then rinsed with 2% BSA/PBS for 10 min and incubated with propidium iodide (0.5 μg/ml) for 15 min at room temperature before they were mounted with Aquamount (Lerner Laboratories, Pittsburgh, Pa.) containing 0.01% 1,4-diazobicyclo(2,2,2)octane (DABCO, Sigma). Cells were then examined using confocal microscopy for microtubule morphology, and nuclear morphology to visualize DNA fragmentation (at least 100 cells were examined per condition).

[5] = test system: caspase-3 activity in CEM, CEM/VLB100, CEM/VM-1-5, 1A9 and 1A9/PTX22 cells; experiment: Determination of caspase-3 activity (Z-DEVD-aminoluciferin); type: cell-based, human; conditions: 72 hours; 25 μM (CEM lines) or 50 μM (1A9 lines)
Description: Determination of caspase-3 activity: 10^6 cells were incubated with 25 μM 9-nitro-nos (CEM, CEMNLB100 and CEM/VM-1-5) or 50 μM 9-nitro-nos (1A9 and 1A9/PTX22) for 0, 24, 48 and 72 hours. Caspase-3 activity was then measured by the cleavage of the small synthetic substrate Z-DEVD-aminoluciferin (CaspaseGlo™ 3/7 Assay System Kit, Promega, Madison, Wis.) that becomes luminogenic upon cleavage. The luminescent signal, which is directly proportional to the amount of caspase-3 activity, was measured in a luminescence plate reader.

Question: What does the source list for `COc1ccc2c(c1OC)C(=O)O[C@@H]2[C@H]1c2c(c([N+](=O)[O-])c3c(c2OC)OCO3)CCN1C` [9-nitro-nos, (S)-6,7-dimethoxy-3-((R)-4-methoxy-6-methyl-9-nitro-5,6,7,8-tetrahydro-[1,3]dioxolo[4,5-g]isoquinolin-5-yl)isobenzofuran-1(3H)-one]?
Answer: cell cycle profile of normal human fibroblast cells [1]: did not observe any perturbations in the cell cycle profile; also recorded: did not alter the cell cycle progression profile; IC50 (1A9 cells): 30.1 µM; IC50 (1A9/PTX22 cells [2]): 27.5 µM; IC50 (CEM/VLB100 cells): 8.1 µM; IC50 (CEM/VM-1-5 cells): 6.9 µM; TUNEL-positive cells (1A9/PTX22 cells [3]): 55.9%; cellular and nuclear morphology (apoptosis) [4]: extensive terminal apoptotic figures with fragmented DNA pieces and perturbed microtubule arrays; activation of caspase-3 [5]: 10-20 fold
